Biological target: T1, NSD2 (Homo sapiens, UniProt O96028, E1099K)
T1 construct: from tissue; host or cells: SEM subcutaneous xenograft tumours in CB17 SCID mice
T1 sequence (O96028 1-1365 E1099K): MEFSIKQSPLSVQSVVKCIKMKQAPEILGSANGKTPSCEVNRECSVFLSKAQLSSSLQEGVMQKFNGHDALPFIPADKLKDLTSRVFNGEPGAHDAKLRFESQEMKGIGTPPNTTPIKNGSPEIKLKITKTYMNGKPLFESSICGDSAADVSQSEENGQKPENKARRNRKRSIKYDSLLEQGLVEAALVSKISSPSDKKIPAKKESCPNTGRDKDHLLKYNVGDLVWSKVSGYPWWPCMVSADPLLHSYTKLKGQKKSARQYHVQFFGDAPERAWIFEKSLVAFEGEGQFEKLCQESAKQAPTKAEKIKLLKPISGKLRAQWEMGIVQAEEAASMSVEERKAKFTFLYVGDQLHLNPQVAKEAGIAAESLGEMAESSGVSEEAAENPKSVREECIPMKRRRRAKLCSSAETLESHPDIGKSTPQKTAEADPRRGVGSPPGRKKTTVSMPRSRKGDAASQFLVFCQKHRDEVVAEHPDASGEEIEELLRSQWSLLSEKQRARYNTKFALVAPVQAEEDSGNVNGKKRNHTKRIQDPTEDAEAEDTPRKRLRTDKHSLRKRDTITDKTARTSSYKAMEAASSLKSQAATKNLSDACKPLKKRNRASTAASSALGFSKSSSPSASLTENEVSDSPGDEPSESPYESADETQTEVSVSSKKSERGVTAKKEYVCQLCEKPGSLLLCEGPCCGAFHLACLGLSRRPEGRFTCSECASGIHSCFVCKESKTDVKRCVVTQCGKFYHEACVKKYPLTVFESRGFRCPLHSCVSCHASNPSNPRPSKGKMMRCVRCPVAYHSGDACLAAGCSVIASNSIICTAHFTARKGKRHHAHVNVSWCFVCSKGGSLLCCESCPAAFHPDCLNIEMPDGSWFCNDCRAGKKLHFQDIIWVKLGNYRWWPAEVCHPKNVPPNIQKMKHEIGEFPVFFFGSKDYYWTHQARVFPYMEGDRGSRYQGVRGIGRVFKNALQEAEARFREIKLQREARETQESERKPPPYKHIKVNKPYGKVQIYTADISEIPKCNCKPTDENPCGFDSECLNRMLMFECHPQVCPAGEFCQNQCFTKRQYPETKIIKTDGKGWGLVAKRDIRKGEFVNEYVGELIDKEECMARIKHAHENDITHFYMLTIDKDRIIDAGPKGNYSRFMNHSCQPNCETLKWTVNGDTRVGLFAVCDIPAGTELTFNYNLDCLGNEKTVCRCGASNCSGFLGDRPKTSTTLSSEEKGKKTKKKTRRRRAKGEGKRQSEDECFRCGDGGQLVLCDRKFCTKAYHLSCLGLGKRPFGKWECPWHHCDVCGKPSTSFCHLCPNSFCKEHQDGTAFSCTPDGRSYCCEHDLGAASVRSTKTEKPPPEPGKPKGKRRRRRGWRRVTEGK
Test: Pharmacodynamic assessment in SEM xenograft model (IHC, Western blot)
Format: in vivo, mice
Conditions: 60 mg/kg iv, 5 consecutive days, versus vehicle
Protocol: We finally performed pharmacodynamic assessment of LLC0424 in both the SEM and 22RV1 xenograft model. Based on the solubility of LLC0424 and the tolerance of the mice, we chose 60 mg/kg as the dosage for the pharmacodynamic study. LLC0424 was administrated by intravenous (iv) or intraperitoneal (ip) injection at a dose of 60 mg/kg for 5 consecutive days. The tumor tissues were harvested at day 5 and subjected to histology and Western blot analysis (Figure 7A, and SI, Figure S6A).
First, 6–8 weeks old male CB17 severe combined immunodeficiency (SCID) mice were procured from the University of Michigan breeding colony. Subcutaneous tumors were established at both sides of the dorsal flank of mice. Tumors were measured at least biweekly using digital calipers following the formula (π/6) (L × W2), where L is length and W is width of the tumor. At the end of the studies, mice were sacrificed and tumors extracted. For each tumor, a part is […] followed by embedding in paraffin to make tissue blocks. The blocks were sectioned at […] for immunohistochemistry analysis. Another part is made into tissue lysates for Western blotting analysis. The University of Michigan Institutional Animal Care and Use Committee (IACUC) approved all in vivo studies. […]

SMILES: O=C1CCC(N2C(=O)c3ccc(N4CCC(NC(=O)c5ccc(NC(=O)c6ccc(CN(C(=O)c7ccc8c(c7)OCC(=O)N8)C7CC7)cc6)cc5)CC4)cc3C2=O)C(=O)N1 (stereo not shown) [compound 10l, N-Cyclopropyl-N-(4-((4-((1-(2-(2,6-dioxopiperidin-3-yl)-1,3-dioxoisoindolin-5-yl)piperidin-4-yl)carbamoyl)phenyl)carbamoyl)benzyl)-3-oxo-3,4-dihydro-2H-benzo[b][1,4]oxazine-7-carboxamide]
- NSD2 level in tumor tissue: significantly downregulated
